The term Km denotes the concentration of substrate that gives half-maximal velocity. Usually IC50 stands for the point on the concentration scale where inhibition reaches its midpoint.

Where “and” joins values, the source holds several entries; their conditions need not be identical. Equal entries are not always repeated.

The text below walks through data of paper PMC8667612 (Journal of medicinal chemistry, 2021).

Experiment [1] concerns the target T1, N. fowleri CYP51 (Naegleria fowleri, UniProt A0A6A5BCR7, E4K/I5A/S2A, form not given). The class given is biochemical. The conditions noted are these: 0.5 μM P450, 60 s at 37 °C, sterol 3–50 μM.
Experiment [2] deals with T1, N. fowleri CYP51. To be noted: read-out: IC50 (1 h reaction).

Consider `CC(C)=CCC[C@@H](C)[C@H]1CC[C@@]2(C)C3=C(CC[C@]12C)[C@@]1(C)CC[C@H](O)C(C)(C)[C@@H]1CC3` [lanosterol], for which the Km at N. fowleri CYP51 [1] came to 48 ± 10 µM.

In the case of `O=C(N[C@@H](Cn1ccnc1)c1ccc(-c2ccc(F)cc2)cc1Cl)c1ccc(-c2nnc(-c3ccccc3)o2)cc1` [VFV-Cl, (R)-N-(1-(3-chloro-4’-fluoro-[1,1’-biphenyl]-4-yl)-2-(1H-imidazol-1-yl)ethyl)-4-(5-phenyl-1,3,4-oxadiazol-2-yl)benzamide], the IC50 on N. fowleri CYP51 [2] was 5.9 µM and 5.94 µM.

Consider `C=C(CC[C@@H](C)[C@H]1CC[C@@]2(C)C3=C(CC[C@]12C)[C@@]1(C)CC[C@H](O)[C@@H](C)[C@@H]1CC3)C(C)C` [obtusifoliol], for which the Km on N. fowleri CYP51 [1] came to 8 ± 1 µM.

With `O=C(N[C@@H](Cn1ccnc1)c1ccc(-c2ccc(F)cc2)cc1F)c1ccc(-c2nnc(-c3ccccc3)o2)cc1` [VFV, (R)-N-(1-(3,4’-difluoro-[1,1’-biphenyl]-4-yl)-2-(1H-imidazol-1-yl)-ethyl)-4-(5-phenyl-1,3,4-oxadiazol-2-yl)benzamide], the IC50 on N. fowleri CYP51 [2] worked out at 0.68 µM.

In the case of `C[C@@H](c1nc(-c2ccc(C#N)cc2)cs1)[C@](O)(Cn1cncn1)c1cc(F)ccc1F` [isavuconazole, reference compound], the IC50 on N. fowleri CYP51 [2] came out at 0.96 µM.
